{
  "source": "paper PMC10252594",
  "about": "(Cancers, 2023)",
  "key": {"[1]": {"test_system": "PC-3 xenograft", "design": "method as in PMID 34681843", "details": "cited from earlier work"}, "[2]": {"test_system": "LAPC-4 xenografts", "assay": "Fatty acid determination (GC-FID) in LAPC-4 xenograft experiment", "assay_type": "in vivo, mice", "details": "10 mg/kg PO", "procedure": "[…] The fatty acid profile was next determined by gas chromatography (GC), coupled with a flame ionization detector (FID), using phosphatidylcholine C21:0 (Avanti Polar Lipids) as an internal standard. The GC model 5890 was from Agilent Technologies (Mississauga, ON, Canada). The capillary column used was a HP-88 (100 m × 0.25 mm, […], Agilent Technologies), and the carrier gas was helium at 1.5 mL/min. A total of 56 fatty acids were identified according to their retention time, using fatty acid mixtures as standards."}, "[3]": {"details": "LAPC-4 tumor, 28 days (RM-581 group per Table S1)"}, "[4]": {"details": "LAPC-4 tumor, 28 days, Table S1"}},
  "data": [
    {"smiles": "C#C[C@]1(O)CC[C@H]2[C@@H]3CCc4cc(OC)c(N5CCN(C(=O)[C@@H]6CCCN6C(=O)c6ccc7ccccc7n6)CC5)cc4[C@H]3CC[C@@]21C", "note": "[RM-581]", "values": [
      {"measurement": "effective oral dose for tumor regression", "setting": "[1]; PC-3 xenograft, PO", "value": 60, "unit": "mg/kg"},
      {"measurement": "FA and cholesterol in tumors", "setting": "[1]; tumors from PC-3 xenografts", "value": "significant decrease"},
      {"measurement": "S-FA, liver", "setting": "[2]; 28 days", "value": 12.5, "unit": "mg/g"},
      {"measurement": "S-FA, plasma", "setting": "[2]; 28 days", "value": 1.10, "unit": "µg/mL"},
      {"measurement": "S-FA, plasma, % vs CTL", "setting": "[2]; 28 days", "value": "+2.8%"},
      {"measurement": "S-FA, tumor", "setting": "[2]; 28 days", "value": 8.15, "unit": "mg/g"},
      {"measurement": "T-FA, liver", "setting": "[2]; 28 days", "value": 34.5, "unit": "mg/g"},
      {"measurement": "T-FA, liver, % vs CTL", "setting": "[2]; 28 days", "value": "+19.8%"},
      {"measurement": "T-FA, plasma", "setting": "[2]; 28 days", "value": 3.71, "unit": "µg/mL"},
      {"measurement": "T-FA, plasma, % vs CTL", "setting": "[2]; 28 days", "value": "+1.6%"},
      {"measurement": "T-FA, tumor", "setting": "[2]; 28 days", "value": 24.5, "unit": "mg/g"},
      {"measurement": "U-FA, liver", "setting": "[2]; 28 days", "value": 21.9, "unit": "mg/g"},
      {"measurement": "U-FA, plasma", "setting": "[2]; 28 days", "value": 2.59, "unit": "µg/mL"},
      {"measurement": "U-FA, plasma, % vs CTL", "setting": "[2]; 28 days", "value": "+1.6%"},
      {"measurement": "U-FA, tumor", "setting": "[2]; 28 days", "value": 16.0, "unit": "mg/g"},
      {"measurement": "Adrenic acid-1 (7c10c13c16c) 22:4, % vs CTL", "setting": "[2]; LAPC-4 tumor, 28 days", "value": "+8.6%"},
      {"measurement": "Adrenic acid-1 (7c10c13c16c) 22:4, FA RM-581", "setting": "[2]; LAPC-4 tumor, 28 days", "value": 0.380, "unit": "mg/g"},
      {"measurement": "Adrenic acid-2 (4c7c10c13c16c) 22:5, % vs CTL", "setting": "[2]; LAPC-4 tumor, 28 days", "value": "−12", "unit": "%"},
      {"measurement": "Adrenic acid-2 (4c7c10c13c16c) 22:5, FA RM-581", "setting": "[2]; LAPC-4 tumor, 28 days", "value": 0.260, "unit": "mg/g"},
      {"measurement": "Alpha-linolenic acid (9c12c15c) 18:3, FA RM-581", "setting": "[2]; LAPC-4 tumor, 28 days", "value": 0.230, "unit": "mg/g"},
      {"measurement": "Arachidonic (5c8c11c14c) 20:4, % vs CTL", "setting": "[2]; LAPC-4 tumor, 28 days", "value": "−2.1", "unit": "%"},
      {"measurement": "Arachidonic (5c8c11c14c) 20:4, FA RM-581", "setting": "[2]; LAPC-4 tumor, 28 days", "value": 2.150, "unit": "mg/g"},
      {"measurement": "Cervonic acid 22:6, % vs CTL", "setting": "[2]; LAPC-4 tumor, 28 days", "value": 0, "unit": "%"},
      {"measurement": "Cervonic acid 22:6, FA RM-581", "setting": "[2]; LAPC-4 tumor, 28 days", "value": 0.530, "unit": "mg/g"},
      {"measurement": "Dihomo-γ-linolenic acid (8c11c14c) 20:3, FA RM-581", "setting": "[2]; LAPC-4 tumor, 28 days", "value": 0.580, "unit": "mg/g"},
      {"measurement": "Dimethoxyhexadecanoic acid 16:0, % vs CTL", "setting": "[2]; LAPC-4 tumor, 28 days", "value": 0, "unit": "%"},
      {"measurement": "Dimethoxyhexadecanoic acid 16:0, FA RM-581", "setting": "[2]; LAPC-4 tumor, 28 days", "value": 0.170, "unit": "mg/g"},
      {"measurement": "Docosapentaenoic acid (7c10c13c16c19c) 22:5, % vs CTL", "setting": "[2]; LAPC-4 tumor, 28 days", "value": "+17%"},
      {"measurement": "Docosapentaenoic acid (7c10c13c16c19c) 22:5, FA RM-581", "setting": "[2]; LAPC-4 tumor, 28 days", "value": 0.140, "unit": "mg/g"},
      {"measurement": "Lignoceric acid 24:0, % vs CTL", "setting": "[2]; LAPC-4 tumor, 28 days", "value": "+23%"},
      {"measurement": "Lignoceric acid 24:0, FA RM-581", "setting": "[2]; LAPC-4 tumor, 28 days", "value": 0.160, "unit": "mg/g"},
      {"measurement": "Linoleic acid (9c12c) 18:2, FA RM-581", "setting": "[2]; LAPC-4 tumor, 28 days", "value": 4.435, "unit": "mg/g"},
      {"measurement": "Myristic acid 14:0, FA RM-581", "setting": "[2]; LAPC-4 tumor, 28 days", "value": 0.275, "unit": "mg/g"},
      {"measurement": "Nervonic acid (15c) 24:1, % vs CTL", "setting": "[2]; LAPC-4 tumor, 28 days", "value": "+18%"},
      {"measurement": "Nervonic acid (15c) 24:1, FA RM-581", "setting": "[2]; LAPC-4 tumor, 28 days", "value": 0.130, "unit": "mg/g"},
      {"measurement": "Oleic acid (9c) 18:1, FA RM-581", "setting": "[2]; LAPC-4 tumor, 28 days", "value": 4.920, "unit": "mg/g"},
      {"measurement": "Palmitic acid 16:0, FA RM-581", "setting": "[2]; LAPC-4 tumor, 28 days", "value": 5.095, "unit": "mg/g"},
      {"measurement": "Palmitoleic acid (9c) 16:1, FA RM-581", "setting": "[2]; LAPC-4 tumor, 28 days", "value": 1.035, "unit": "mg/g"},
      {"measurement": "Stearic acid 18:0, % vs CTL", "setting": "[2]; LAPC-4 tumor, 28 days", "value": "+3.5%"},
      {"measurement": "Stearic acid 18:0, FA RM-581", "setting": "[2]; LAPC-4 tumor, 28 days", "value": 2.355, "unit": "mg/g"},
      {"measurement": "Vaccenic acid (11c) 18:1, % vs CTL", "setting": "[2]; LAPC-4 tumor, 28 days", "value": "+5.3%"},
      {"measurement": "Vaccenic acid (11c) 18:1, FA RM-581", "setting": "[2]; LAPC-4 tumor, 28 days", "value": 0.690, "unit": "mg/g"},
      {"measurement": "Adrenic acid-1 (7c10c13c16c) 22:4, % of Total FA", "setting": "[2]; [3]", "value": 1.54, "unit": "%"},
      {"measurement": "Adrenic acid-2 (4c7c10c13c16c) 22:5, % of Total FA", "setting": "[2]; [3]", "value": 1.07, "unit": "%"},
      {"measurement": "Alpha-linolenic acid (9c12c15c) 18:3, % of Total FA", "setting": "[2]; [3]", "value": 0.94, "unit": "%"},
      {"measurement": "Arachidonic (5c8c11c14c) 20:4, % of Total FA", "setting": "[2]; [3]", "value": 8.77, "unit": "%"},
      {"measurement": "Cervonic acid 22:6, % of Total FA", "setting": "[2]; [3]", "value": 2.18, "unit": "%"},
      {"measurement": "Dihomo-γ-linolenic acid (8c11c14c) 20:3, % of Total FA", "setting": "[2]; [3]", "value": 2.35, "unit": "%"},
      {"measurement": "Dimethoxyhexadecanoic acid 16:0, % of Total FA", "setting": "[2]; [3]", "value": 0.68, "unit": "%"},
      {"measurement": "Docosapentaenoic acid (7c10c13c16c19c) 22:5, % of Total FA", "setting": "[2]; [3]", "value": 0.57, "unit": "%"},
      {"measurement": "Lignoceric acid 24:0, % of Total FA", "setting": "[2]; [3]", "value": 0.65, "unit": "%"},
      {"measurement": "Linoleic acid (9c12c) 18:2, % of Total FA", "setting": "[2]; [3]", "value": 18.1, "unit": "%"},
      {"measurement": "Myristic acid 14:0, % of Total FA", "setting": "[2]; [3]", "value": 1.12, "unit": "%"},
      {"measurement": "Nervonic acid (15c) 24:1, % of Total FA", "setting": "[2]; [3]", "value": 0.52, "unit": "%"},
      {"measurement": "Oleic acid (9c) 18:1, % of Total FA", "setting": "[2]; [3]", "value": 20.1, "unit": "%"},
      {"measurement": "Palmitic acid 16:0, % of Total FA", "setting": "[2]; [3]", "value": 20.8, "unit": "%"},
      {"measurement": "Palmitoleic acid (9c) 16:1, % of Total FA", "setting": "[2]; [3]", "value": 4.23, "unit": "%"},
      {"measurement": "Stearic acid 18:0, % of Total FA", "setting": "[2]; [3]", "value": 9.61, "unit": "%"},
      {"measurement": "Vaccenic acid (11c) 18:1, % of Total FA", "setting": "[2]; [3]", "value": 2.82, "unit": "%"},
      {"measurement": "Arachidic acid 20:0, FA RM-581", "setting": "[2]; [4]", "value": 0.05, "unit": "mg/g"},
      {"measurement": "Arachidic acid 20:0, FA RM-581 % of total", "setting": "[2]; [4]", "value": 0.20, "unit": "%"},
      {"measurement": "Behenic acid 22:0, FA RM-581", "setting": "[2]; [4]", "value": 0.09, "unit": "mg/g"},
      {"measurement": "Behenic acid 22:0, FA RM-581 % of total", "setting": "[2]; [4]", "value": 0.35, "unit": "%"},
      {"measurement": "Caproic acid 10:0, FA RM-581", "setting": "[2]; [4]", "value": 0, "unit": "mg/g"},
      {"measurement": "Caproic acid 10:0, FA RM-581 % of total", "setting": "[2]; [4]", "value": 0.02, "unit": "%"},
      {"measurement": "Caprylic acid 8:0, FA RM-581", "setting": "[2]; [4]", "value": 0, "unit": "mg/g"},
      {"measurement": "Caprylic acid 8:0, FA RM-581 % of total", "setting": "[2]; [4]", "value": 0, "unit": "%"},
      {"measurement": "Dimethoxyoctadecanoic acid 18:0, FA RM-581", "setting": "[2]; [4]", "value": 0.09, "unit": "mg/g"},
      {"measurement": "Dimethoxyoctadecanoic acid 18:0, FA RM-581 % of total", "setting": "[2]; [4]", "value": 0.38, "unit": "%"}
    ]}
  ]
}
